Data as given in a compilation of properties of binary mixtures (doi:10.1016/j.molliq.2016.11.074).

Experiment: xn = mol fraction of the nth substance listed
Conditions: 100 kPa

O + CC[n+]1ccn(C)c1.CS(=O)(=O)[O-]
Conditions | electrical conductivity [S/m]
298.15 K, x1 = 1 | 0.0002

CC[n+]1ccn(C)c1.CS(=O)(=O)[O-] + O
Conditions | electrical conductivity [S/m] | speed of sound [m/s]
293.15 K, x2 = 0.0015 | – | 1779
293.15 K, x2 = 0.1905 | – | 1793
293.15 K, x2 = 0.3226 | – | 1808
293.15 K, x2 = 0.4301 | – | 1817
293.15 K, x2 = 0.619 | – | 1851
293.15 K, x2 = 0.7573 | – | 1853
293.15 K, x2 = 0.9048 | – | 1803
298.15 K, x1 = 0.0119 | 2.19 | –
298.15 K, x2 = 0 | 0.45 | 1766
298.15 K, x2 = 0.191 | 0.707 | –
298.15 K, x2 = 0.3226 | – | 1795
298.15 K, x2 = 0.3233 | 0.851 | –
298.15 K, x2 = 0.5054 | – | 1818
298.15 K, x2 = 0.5057 | 1.24 | –
298.15 K, x2 = 0.6206 | – | 1840
298.15 K, x2 = 0.7542 | 2.37 | –
298.15 K, x2 = 0.7573 | – | 1846
298.15 K, x2 = 0.902 | 3.74 | –
298.15 K, x2 = 0.9032 | – | 1791
298.15 K, x2 = 0.9651 | 3.87 | –
303.15 K, x2 = 0 | – | 1753
303.15 K, x2 = 0.3241 | – | 1784
303.15 K, x2 = 0.427 | – | 1793
303.15 K, x2 = 0.5069 | – | 1807
303.15 K, x2 = 0.7542 | – | 1841
303.15 K, x2 = 0.9048 | – | 1779
303.15 K, x2 = 0.9662 | – | 1680
308.15 K, x2 = 0 | – | 1743
308.15 K, x2 = 0.192 | – | 1757
308.15 K, x2 = 0.3241 | – | 1771
308.15 K, x2 = 0.4286 | – | 1783
308.15 K, x2 = 0.5054 | – | 1795
308.15 K, x2 = 0.6206 | – | 1818
308.15 K, x2 = 0.7558 | – | 1838
308.15 K, x2 = 0.9032 | – | 1765
313.15 K, x2 = 0.192 | – | 1745
313.15 K, x2 = 0.3241 | – | 1760
313.15 K, x2 = 0.5084 | – | 1784
313.15 K, x2 = 0.6206 | – | 1808
313.15 K, x2 = 0.7558 | – | 1830
313.15 K, x2 = 0.9662 | – | 1668
